Measurements as given in patent US20110135574A1, “METHODS OF TREATING KIDNEY DISEASE” (priority 2009, published 2011).
“Also recorded” adds a separate entry of the source.

Assays:
AT1R podocytes [1] = assay: Whole-cell patch-clamp recording of AngII-evoked TRPC-like current; type: cell-based, rat; conditions: AngII 500 nM
Method: (§1) Electrophysiology. Patch-clamp electrophysiology (Axopatch 200B amplifier, Axon Instruments, CA) was performed in the whole-cell configuration. Briefly, fully differentiated podocytes were plated on glass coverslips at low density and placed in the recording chamber. The patch pipettes with resistances of 3-4 MΩ were pulled from borosilicate glass with a P-97 puller (Sutter Instrument) and filled with a solution containing (in mM): 135 CH3SO3Cs, 10 CsCl, 3 MgATP, 0.2 NaGTP, 0.2 EGTA, 0.13 CaCl2, and 10 HEPES, pH 7.3 with CsOH. The bath solution contained (in mM): 135 CH3SO3Na, 5 CsCl, 2 CaCl2, 1 MgCl2, 10 HEPES, and 10 Glucose, pH 7.4 with NaOH. Angiotensin (500 nM) was applied to the bath solution. Whole-cell currents were recorded from −100 mV to 100 mV voltage ramps over 150 ms and a holding potential of zero. For single channel recordings in the outside-out configuration, we utilized a voltage step protocol from −100 mV to +100 mV delivered at 20 mV intervals and a holding potential of −60 mV. Average pipette resistance filled with pipette solution was 5-10 MΩ. Data were sampled at 10 kHz and filtered at 5 kHz. […] Ensemble averages were expressed as open channel probabilities (average current divided by unitary current amplitude and # of channels in each patch) and plotted as histograms. All data were acquired at room temperature and analyzed using pClamp 10 (Axon Instruments, CA).

AT1R podocytes [2] = assay: Fluo-3 calcium imaging of AngII-evoked Ca2+ transients; type: cell-based, rat; conditions: Losartan 200 nM; AngII 500 nM
Method: (§2) Podocyte cell culture. Wild-type mouse podocytes (passages 7 to 18) derived from the Immortomouse stably expressing the temperature-sensitive SV40 T-antigen were generously provided by Peter Mundel (University of Miami School of Medicine, FL) and cultured as previously described (Asanuma et al., Nat Cell Biol 8, 485-491, 2006). Briefly, podocytes were plated on collagen-coated cell culture dishes (100 μg/ml Type I Collagen, Gibco Invitrogen) and maintained at 33° C. in a humidified atmosphere of 5% CO2 in RPMI1640 medium supplemented with 10% heat-inactivated FBS, 100 U/ml Penicillin, 100 μg/ml streptomycin, and 100 U/ml Interferon-γ (IFN-γ). Under these permissive culture conditions, the podocytes remain in the undifferentiated, replication-competent state. Podocytes were thermoshifted to 38° C. and maintained in IFN-γ-free culture medium to induce growth arrest and differentiation. Podocyte-specific markers for differentiation are expressed within 7 days of culture in these non-permissive conditions. […]
Calcium imaging. […] Fluorescence intensity was normalized to maximal fluorescence obtained at the end of each experiment by the application of 100 μM Ionomycin, based on the formula F=(Fmax (angiotensin)−Fmin)/(Fmax (ionomycin)−Fmin). Measurements were analyzed using Zeiss Pascal Software and Microsoft Xcel, and images were prepared in Adobe Photoshop and NIH Image J.

AT1R podocytes [3] = assay: Stress fiber (phalloidin) and focal adhesion (paxillin) quantification after AngII, AT1R podocytes; type: cell-based, rat; conditions: in words
Method: as §2
(§3) Immunocytochemistry, wound healing assays, and confocal imaging. […] For double immunostaining, podocytes were incubated with antibodies to Paxillin (Chemicon International) and detected with Alexa-488-conjugated secondary antibodies (Molecular Probes). […]

podocytes = assay: Stress fiber quantification in podocytes, TRPC/Rho GTPase coupling (FIG. 4E); type: cell-based
Method: Lentivirus construction and shRNA-mediated gene silencing. Podocytes were exposed to lentivirus encoding validated shRNA sequences (Open Biosystems) for 24 hours in cell culture medium supplemented with 4 μg/ml polybrene (Chemicon International). For all experiments, parallel infections with the enhanced GFP virus in the VVPW vector, scrambled shRNA, or polybrene alone were used as control. All experiments were performed at least 48 hours post-infection of podocytes that were thermoshifted 5-7 days prior to the assay. Lentiviral particles pseudotyped with the vesicular stomatitis virus glycoprotein (VSV-G) were constructed according to the manufacturer's protocol. Briefly, low-passage HEK293T cells were transfected with the pLKO.1 plasmid encoding the shRNA, the packaging plasmid pMDG.2 ΔR8.91, and the envelope plasmid pCMV-VSV-G at a ratio of 10:10:1 using the Minis Trans-IT LT-1 transfection reagent. Enhanced GFP encoded in the pLVX vector was used to assess transfection efficiency. The medium was replaced with the virus harvest media 18 hours post-transfection, and viral particles were collected twice at 24 hour intervals thereafter. […]
as §3

[4] = biological target: T1, TRPC5 and TRPC6 channels in AT1R podocytes (Rattus norvegicus, UniProt Q8VD38); assay: Outside-out single channel recordings of TRPC5-like and TRPC6-like conductances; type: cell-based; conditions: La3+ 100 μM; after AngII 500 nM; Vstep +100 mV
T1 construct: endogenous in cells; host or cells: immortalized rat podocytes stably expressing the AngII Type 1 Receptor (AT1R podocytes)
T1 sequence (Q8VD38 1-974): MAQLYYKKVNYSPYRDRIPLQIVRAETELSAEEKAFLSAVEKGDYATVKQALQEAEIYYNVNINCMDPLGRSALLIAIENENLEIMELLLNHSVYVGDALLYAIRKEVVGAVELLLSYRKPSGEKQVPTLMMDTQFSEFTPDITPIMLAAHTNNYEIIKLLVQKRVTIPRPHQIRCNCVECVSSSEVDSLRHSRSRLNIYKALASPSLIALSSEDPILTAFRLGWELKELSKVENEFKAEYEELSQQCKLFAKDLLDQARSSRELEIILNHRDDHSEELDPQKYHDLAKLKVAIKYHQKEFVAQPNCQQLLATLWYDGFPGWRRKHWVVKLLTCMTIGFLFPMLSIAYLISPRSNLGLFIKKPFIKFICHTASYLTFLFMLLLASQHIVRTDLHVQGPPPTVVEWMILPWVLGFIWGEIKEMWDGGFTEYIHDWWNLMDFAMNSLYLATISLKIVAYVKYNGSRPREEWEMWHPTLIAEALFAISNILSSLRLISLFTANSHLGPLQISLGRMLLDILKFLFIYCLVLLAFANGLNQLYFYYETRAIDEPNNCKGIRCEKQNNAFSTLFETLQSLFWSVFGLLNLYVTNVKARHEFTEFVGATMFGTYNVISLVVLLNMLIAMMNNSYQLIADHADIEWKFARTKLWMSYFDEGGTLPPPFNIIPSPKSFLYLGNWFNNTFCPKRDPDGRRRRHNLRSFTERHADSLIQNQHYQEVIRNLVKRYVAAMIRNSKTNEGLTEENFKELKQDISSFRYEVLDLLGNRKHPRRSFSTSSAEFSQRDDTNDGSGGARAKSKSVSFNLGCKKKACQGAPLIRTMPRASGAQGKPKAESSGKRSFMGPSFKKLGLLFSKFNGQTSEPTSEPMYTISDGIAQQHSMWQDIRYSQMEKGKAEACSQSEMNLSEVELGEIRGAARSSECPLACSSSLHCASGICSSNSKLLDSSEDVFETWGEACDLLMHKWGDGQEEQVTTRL
Method: as §1

[5] = biological target: T2, TRPC5 and TRPC6 channels in AT1R podocytes (Rattus norvegicus, UniProt Q99N78); assay: as above; type: cell-based; conditions: La3+ 100 μM; in words
T2 construct: endogenous in cells; host or cells: immortalized rat podocytes stably expressing the AngII Type 1 Receptor (AT1R podocytes)
T2 sequence (Q99N78 1-930): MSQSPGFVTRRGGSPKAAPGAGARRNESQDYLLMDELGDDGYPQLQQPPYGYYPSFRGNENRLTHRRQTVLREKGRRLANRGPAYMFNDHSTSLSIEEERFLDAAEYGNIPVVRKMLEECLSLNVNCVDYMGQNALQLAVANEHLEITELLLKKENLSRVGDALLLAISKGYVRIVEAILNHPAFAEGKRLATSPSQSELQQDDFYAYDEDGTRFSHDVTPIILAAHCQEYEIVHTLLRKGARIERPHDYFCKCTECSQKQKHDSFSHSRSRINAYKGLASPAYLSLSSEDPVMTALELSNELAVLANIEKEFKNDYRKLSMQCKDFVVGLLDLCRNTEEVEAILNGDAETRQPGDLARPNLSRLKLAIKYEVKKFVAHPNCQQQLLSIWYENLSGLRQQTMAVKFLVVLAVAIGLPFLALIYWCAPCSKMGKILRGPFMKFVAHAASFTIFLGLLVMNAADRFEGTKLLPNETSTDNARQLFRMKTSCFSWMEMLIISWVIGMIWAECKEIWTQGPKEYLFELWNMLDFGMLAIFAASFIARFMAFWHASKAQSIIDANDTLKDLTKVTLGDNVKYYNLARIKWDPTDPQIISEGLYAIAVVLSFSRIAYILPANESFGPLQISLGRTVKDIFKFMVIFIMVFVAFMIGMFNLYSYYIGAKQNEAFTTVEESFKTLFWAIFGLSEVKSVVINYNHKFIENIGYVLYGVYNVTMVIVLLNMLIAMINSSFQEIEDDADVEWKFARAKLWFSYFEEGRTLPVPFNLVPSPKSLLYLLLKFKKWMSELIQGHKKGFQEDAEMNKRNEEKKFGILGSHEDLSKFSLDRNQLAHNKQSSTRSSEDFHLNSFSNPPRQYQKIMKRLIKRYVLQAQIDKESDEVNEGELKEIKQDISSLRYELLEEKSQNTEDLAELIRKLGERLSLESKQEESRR
Method: as §1

**Q.** Which normalized peak current (AT1R podocytes [1]; at +100 mV) does the source give for “Angiotensin II (DRVYIHPF; Angiotensin-2; UniProt P01019 25-32, looked up) [AngII]” here?
**A.** 20±7 pA/pF

**Q.** And the normalized peak current (AT1R podocytes [1]; at -100 mV)?
**A.** 10±4 pA/pF

**Q.** With `CCCCc1nc(Cl)c(CO)n1Cc1ccc(-c2ccccc2-c2nn[nH]n2)cc1` [Losartan] as the compound, how does the “decrease of the amplitude of the AngII-evoked Ca2+ transient” value (AT1R podocytes [2]) read?
**A.** more than 70%

**Q.** And the stress fiber formation (AT1R podocytes [3]; Losartan 200 nM prior to AngII exposure)?
**A.** induced robust stress fiber formation

**Q.** What about the “focal adhesions (Paxillin immunostaining)” value (AT1R podocytes [3]; Losartan-treated vs AngII-treated controls) of the same compound?
**A.** increase in focal adhesions

**Q.** What about the stress fibers (podocytes; cells pre-treated with Losartan, Scr shRNA controls 16±1) of the same compound?
**A.** 25±1

**Q.** What does the source list for `[La+3]` [La^3+, Lanthanum]?
**A.** single channel conductance [4] unmasked [4]: 33 pS; effect on AngII-evoked single channel conductances [2] and [3] / single channel activity [5]: abolished; also recorded: suppressed

**Q.** Which stress fibers (podocytes; Y27632 10 μM in TRPC5 depleted cells (22±3 without)) does the source give for `C[C@@H](N)[C@H]1CC[C@H](C(=O)Nc2ccncc2)CC1` [Y27632] here?
**A.** 6±1
